Several values for one entry are separate records, joined by “and”; a condition that tells them apart may be missing. Equal values may be shown once.
What was measured:
[1] = system: patients; test: Dose-dependent peripheral edema in Phase II clinical trials CV168-006 and CV168-008; assay type: in vivo, human
Method: Genomic DNA samples from patients enrolled in two Bristol-Myers Squibb Company Phase II clinical trials CV168-006 and CV168-008 trials were genotyped for 50 SNPs identified in the human renin gene (see Example 1) and evaluated for association with edema.
498 subjects enrolled in the CV168-006 trial and 232 subjects from the CV168-008 trial were analyzed in this study. All analyses were based on data collected up to 24 weeks, which was the duration of the short-term phase of the trials. DNA was extracted from frozen blood by a third-party (Genaissance Inc, North Carolina) using a salting-out method (Gentra Systems). All subjects gave written informed consent.
The association between peripheral edema and the renin single nucleotide polymorphisms of the present invention were investigated by applying statistical analysis to the results of the genotyping assays described elsewhere herein. The central hypothesis of this analysis is that a predisposition to develop dose-dependent peripheral edema may be conferred by specific genomic factors. The analysis attempted to identify one or more of these factors in genomic DNA samples from index cases and matched control subjects who were exposed to Compound A in two Bristol-Myers Squibb (BMS) clinical studies (see Example 2).
Sample. Investigators in the BMS clinical trials diagnosed dose-dependent peripheral edema in some subjects.
Table A provides a distribution of the frequency of dose-dependent peripheral edema by treatment arm.

[2] = system: human renin gene expression in CALU-6 cells; test: Human renin expression profile in CALU-6 cells by quantitative RT-PCR (Example 7); assay type: cell-based; conditions: qRT-PCR, CALU-6, 5×EC50, 24 hr, FIG. 11
Method: Since RAAS plays a fundamental role in fluid volume homeostasis, the possibility that PPAR agonists may contribute to agonist-induced edema mechanism of action through the modulation of other components of this system, specifically renin, was investigated using quantitative RT-PCR. Briefly, gene expression studies were performed using a cell line that was previously shown to express endogenous renin mRNA, CALU-6 (Lang et al., 1995).
The human lung carcinoma cell line, CALU-6, was chosen on account of it being previously shown to endogenously express renin. […]
(§1) Compounds A, B, C, D, and F were synthesized at Bristol-Myers Squibb Co. Compound E was purified by reverse phase high-performance liquid chromatography from commercial pharmaceutical preparations. […] The final concentration of each PPAR-agonist used in the induction studies was 5×EC50 as determined from pre-adipocyte differentiation studies (data not shown). […]
(§2) CALU-6 cells were seeded on day 0 in replicates of six (or twelve for DMSO control), at 5×10^5 cells/well, in 6-well tissue culture plates. […] RNA quantities were determined spectrophotometrically using a SPECTRAMAX® 384 spectrophotometer (Molecular Devices). RNA quality was assessed using an Agilent 2100 Bioanalyzer (Agilent Technologies) following the manufacturer's recommendations. […]

[3] = system: diabetics; conditions: literature (Leff and Reed 2002; Nesto et al. 2003); cited from earlier work
[4] = system: human renin gene expression in CALU-6 cells; test: Human renin expression in CALU-6 cells by microarray analysis (Example 8); assay type: cell-based; conditions: CALU-6, 5×EC50, 24 hr, FIGS. 12A-B
Method: As an independent measurement of the renin induction by PPAR agonists observed using RT-PCR (see Example 7 and FIG. 11), four of the experimental treatment groups described under the “Induction Experiments” section in Example 7, were analyzed on AFFYMETRIX® genechips, including; DMSO, Compound A, Compound B, and Compound E. Triplicate samples from each treatment group were analyzed.
All cDNA and cRNA synthesis as well as all hybridizations and subsequent washing steps were performed following the […]® Expression Analysis Technical Manual (Affymetrix). AFFYMETRIX® HG-U133A gene chips were used for all expression profiling studies in this invention.
Micro Array Suite (MAS) 5.0 (Affymetrix) software was used to pre-process all micro-array data. Each treated sample (including DMSO control) was first scaled to an average intensity value of 1500. The data was further analyzed in Excel '97 (Microsoft).
All treated samples were compiled into one Excel spreadsheet such that each compound treated sample (and DMSO control) was aligned for all 22283 genes on the HG-U133A […]®. Gene fold-change values were calculated by dividing the mean signal intensity of each treatment group by the mean signal intensity of the DMSO control. Pair-wise 2-tailed Student's t-tests were performed for each treatment group.

[5] = system: human renin gene expression in CALU-6 cells; test: Renin gene expression in CALU-6 cells, quantitative RT-PCR dose-titration; assay type: cell-based
Source text: (§3) Cell line maintenance: CALU-6 cells and growth media were obtained from ATCC® (Manassas, Va.). CALU-6 cells were recovered and expanded in complete growth media (Minimal Essential Media+Earle's Balanced Salt Solution, 1% penicillin/streptomycin, 10% Fetal Bovine Serum). Antibiotics and FBS were purchased from Invitrogen.
(§4) Compounds: Compound A, Compound B, Compound D, Compound C, Compound G, Compound F, Compound H, Compound I, Compound J and Compound K were synthesized at Bristol-Myers Squibb Co. Compound E was purified by reverse phase high-performance liquid chromatography from commercial pharmaceutical preparations. Compounds A, B, F, and G are dual PPAR alpha and gamma agonists; while compounds C, D, and E are single PPAR gamma agonists. Fenofibrate and DMSO were purchased from Sigma. […]
(§5) Quantitative RT-PCR experiments: CALU-6 cells were seeded on day 0 in at 5×10^5 cells/well, in 6-well tissue culture plates. […] RNA quantities were determined spectrophotometrically using a SPECTRAMAX® 384 spectrophotometer (Molecular Devices). […] All data were further analyzed using Microsoft Excel. Fold-change in gene expression upon treatment with compound was expressed as […] ΔCt, where ΔΔCt=(Ctrenin, endothelin-1−CtGAPDH)DMSO−(Ctrenin, endothelin-1−CtGAPDH)treatment. […] Dose-titration experiments were further analyzed using GraphPad Prism Software (GraphPad Inc) to derive EC50 values. […]

[6] = system: human endothelin-1 gene expression in CALU-6 cells; test: Human endothelin-1 expression profile in CALU-6 cells by quantitative RT-PCR (Example 15); assay type: cell-based
Method: On account of the involvement of ET-1 in vascular tone maintenance, along with its involvement in numerous cardiovascular disease processes, the possibility that PPAR agonists may contribute to an agonist-induced edema mechanism of action through the modulation of endoethelin-1, was investigated using quantitative RT-PCR. Briefly, gene expression studies were performed using a cell line that was previously shown to express endogenous endothelin mRNA, CALU-6 (Lang et al., 1995).
The human lung carcinoma cell line, CALU-6, was obtained from ATCC®. […]
as §1, §2

[7] = system: human endothelin-1 gene expression in CALU-6 cells; test: Endothelin-1 gene expression in CALU-6 cells, quantitative RT-PCR dose-titration; assay type: cell-based
Source text: as §3, §4, §5

[8] = Dose E (133 subjects), 40 fold Dose A

**Q.** For `COc1ccc(OC(=O)N(CC(=O)O)Cc2ccc(OCCc3nc(-c4ccccc4)oc3C)cc2)cc1` [COM. A, N-[(4-methoxyphenoxy)carbonyl]-N-[[4-[2-(5-methyl-2-phenyl-4-oxazolyl)ethoxy]phenyl]methyl] glycine], which “Number of edema cases” value ([1]; Dose A (79 subjects)) is on record?
**A.** 16

**Q.** And the “edema cases (%)” value ([1]; Dose A (79 subjects))?
**A.** 20%

**Q.** And the “Number of edema cases” value ([1]; Dose B (90 subjects))?
**A.** 14

**Q.** What about the “edema cases (%)” value ([1]; Dose B (90 subjects)) of the same compound?
**A.** 16%

**Q.** And the “Number of edema cases” value ([1]; Dose C (125 subjects))?
**A.** 13

**Q.** And the “edema cases (%)” value ([1]; Dose C (125 subjects))?
**A.** 10%

**Q.** And the “Number of edema cases” value ([1]; Dose D (129 subjects))?
**A.** 27

**Q.** What about the “edema cases (%)” value ([1]; Dose D (129 subjects)) of the same compound?
**A.** 21%

**Q.** What about the “Number of edema cases” value [1, 8] of the same compound?
**A.** 54

**Q.** What about the “edema cases (%)” value [1, 8] of the same compound?
**A.** 40% and 41%

**Q.** What about the “frequency of edema with dose” value ([1]; dose increased from 0.5 mg to 20 mg) of the same compound?
**A.** frequency of edema increased

**Q.** What about the “human renin expression, fold-change over DMSO treated cells” value [2] of the same compound?
**A.** significantly elevate

**Q.** What about the “edema in clinical use” value [3] of the same compound?
**A.** acceptable incidence and severity of edema

**Q.** And the “human renin expression, fold-change over DMSO treated cells” value [4]?
**A.** significantly increased

**Q.** What about the “increase of renin mRNA, factor” value ([5]; CALU-6, qRT-PCR, FIG. 21A) of the same compound?
**A.** fifteen to twenty

**Q.** What about the EC50 ([5]; Homo sapiens, mean ± SEM, renin up-regulation, dose-titration experiments (n = 3 to n = 18), CALU-6, 24 hr) of the same compound?
**A.** 96.3 ± 32 nM

**Q.** What about the “difference in level of endothelin-1 repression compared to other PPAR agonists studied” value ([6]; CALU-6, 5×EC50) of the same compound?
**A.** no significant difference

**Q.** What about the “human endothelin-1 expression, fold-change over DMSO treated cells” value ([6]; qRT-PCR, CALU-6, 5×EC50, 24 hr, FIGS. 16 and 17) of the same compound?
**A.** significantly decrease

**Q.** And the “down-regulation of endothelin-1 gene expression, factor” value ([7]; CALU-6, qRT-PCR, FIG. 21A)?
**A.** four to five

**Q.** What about the IC50 ([7]; Homo sapiens, mean ± SEM, endothelin-1 down-regulation, dose-titration experiments (n = 3 to n = 18), CALU-6, 24 hr) of the same compound?
**A.** 18 ± 6.07 nM

Source: patent US7482124B2, “Method of identifying a PPARgamma-agonist compound having a decreased likelihood of inducing dose-dependent peripheral edema” (Bristol-Myers Squibb Company, priority 2005, dated 2009)
